From patent publication US20240391889A1, “ANTIMICROBIAL COMPOUNDS AND THE METHODS OF USE” (priority 2021, published 2024)
Converted amounts (≈) assume the structure as drawn. Numbered stars: 1 amine (or outer) side, 2 acyl side, 3 side chain; on linkers, the order of the positions; unused ones are H or OH. Square brackets hold non-standard residues; d marks the D form. Peptide text beside a SMILES is read from it. N(tridecyl)Gly = CCCCCCCCCCCCCNCC(=O)O; X1 = CC(c1ccccc1)N(CC(=O)[*:2])[*:1]; NFurfurylGly = O=C(O)CNCc1ccco1; Gly(N(CH2)3NH2) = NCCCNCC(=O)O; Nphe = O=C(O)CNCc1ccccc1; NPrGly = CCCNCC(=O)O; Nlys = NCCCCNCC(=O)O

Assays:
[1] = tested on: Enterococcus faecalis ATCC 29212; format: cell-based; conditions: 24 h, CAMHB
Source text: (§1) This screening led to the discovery of RMG9-11 (FIG. 2C). The minimum inhibitory concentration (MIC) of resynthesized RMG9-11 was initially determined against C. albicans, C. neoformans, and the ESKAPE bacteria via CSLI guidelines (CLSI. Methods for Dilution Antimicrobial Susceptibility Tests for Bacteria That Grow Aerobically, 11th Edition. Clinical and Laboratory Standards Institute (2018); CLSI. Reference method for broth dilution antifungal susceptibility testing of yeasts; approved standard-third edition; CLSI document M27-A3. Clinical and Laboratory Standards Institute (2008)). […] C. albicans clinical isolates include a reference strain (M1), fluconazole susceptible strains (M4 and M6), and fluconazole resistant strains (M2, M3, M5, and M7). ATCC 64124 is multidrug resistant C. albicans strain that is resistant to amphotericin B, fluconazole, caspofungin, and flucytosine. All MICs were performed under CSLI guidelines in triplicate on at least three different days.
(§2) The minimum inhibitory concentration (MIC) of peptoids against the ESKAPE bacteria (Enterococcus faecium ATCC 6569; Staphylococcus aureus ATCC 29213; Klebsiella pneumoniae ATCC 13883; Acinetobacter baumanii ATCC 19606; Pseudomonas aeruginosa ATCC 25619; Enterococcus faecalis ATCC 29212; and Escherichia coli ATCC 25922) was determined following CLSI guidelines (CLSI. Methods for Dilution Antimicrobial Susceptibility Tests for Bacteria That Grow Aerobically, 11th Edition. Clinical and Laboratory Standards Institute, 2018). The MIC against Mycobacterium smegmatis was also determined following CLSI guidelines (Woods, G. L. et al. Susceptibility Testing of Mycobacteria, Nocardiae, and Other Aerobic Actinomycetes, 2nd edition. (2011)). Colonies picked from streaked tryptic soy agar plates were added to tryptic soy broth (TSB) to achieve a turbidity of OD600=0.08-0.15. Inoculant was diluted 1:200 into cation adjust Mueller Hinton Broth (CAMHB) and 90 μL was plated into each well of a 96 well black-wall plate. 2-fold serial dilutions of 10× peptoid (10 μL) were added to each well in triplicate and incubated at 37° C. for 24 hours for the ESKAPE bacteria and 72 hours for M. smegmatis. Tetracycline (20 μg/mL) was used as a positive control with DI water was used as a vehicle control. Following incubation for the ESKAPE bacteria, PRESTO BLUE (10 μL) was added to each well and incubated at 37° C. for one hour before measuring fluorescence on a SPECTRAMAX M5 plate reader (Ex. 555 nm; Em. 585 nm). Following incubation for M. smegmatis, wells were scored following CLSI guidelines to determine MIC. This assay was repeated three times on separate days.

[2] = tested on: Enterococcus faecium ATCC 6569; format: cell-based; conditions: ATCC 6569, 24 h
Source text: as §1, §2

[3] = tested on: Escherichia coli ATCC 25922; format: cell-based; conditions: 24 h, CAMHB
Source text: as §1, §2

[4] = tested on: Pseudomonas aeruginosa ATCC 25619; format: cell-based; conditions: ATCC 25619, 24 h
Source text: as §1, §2

[5] = tested on: Staphylococcus aureus ATCC 29213; format: cell-based; conditions: 24 h, CAMHB
Source text: as §1, §2

C. albicans biofilm = test: Fungal biofilm minimum inhibitory concentration assay (PrestoBlue); format: cell-based, Candida albicans
Experimental: The biofilm minimum inhibitory concentration (MIC) of peptoids against fungal pathogens C. albicans was determined following CLSI guidelines (CLSI. Reference method for broth dilution antifungal susceptibility testing of yeasts; approved standard-third edition; CLSI document M27 A3. Clinical and Laboratory Standards Institute, 2008). Colonies were transferred from a streaked YPD plate to 0.85% saline to reach an OD530 between 0.15 and 0.25. This inoculant was diluted 1:100 into RPMI-MOPS and then further diluted 1:20 into RPMI-MOPS. 200 μL of inoculant was seeded into each well of a 96 well black-walled plate. Plates were incubated overnight at 37° C. Media was gently removed and gently washed three times with PBS. RPMI-MOPS (198 μL) were added to each well. 2-fold serial dilutions of 100× peptoid solutions were prepared in water and 2 μL of peptoid were added to each well in triplicate then incubated at 37° C. for 24 hours. PRESTOBLUE (20 μL) was added to each well and incubated at 37° C. for one hour before measuring fluorescence on a SPECTRAMAX M5 plate reader (Ex. 555 nm; Em. 585 nm).

Mycobacterium smegmatis = test: MIC assay, M. smegmatis (72 h); format: cell-based
Experimental: as §2, with “2-fold serial dilutions of 10× peptoid (10 μL) were added to each well in triplicate and incubated at 37° C. for 24 hours for the ESKAPE bacteria and 72 hours for M. smegmatis. Tetracycline (20 μg/mL) was used as a positive control with DI water was used as a vehicle control.” left out, “This assay was repeated three times on separate days.” left out

[6] = tested on: Klebsiella pneumoniae ATCC 13883; test: Bacterial MIC assay, K. pneumoniae; format: cell-based; conditions: 24 h, CAMHB
Source text: This screening led to the discovery of RMG9-11 (FIG. 2C). The minimum inhibitory concentration (MIC) of resynthesized RMG9-11 was initially determined against C. albicans, C. neoformans, and the ESKAPE bacteria via CSLI guidelines (CLSI. Methods for Dilution Antimicrobial Susceptibility Tests for Bacteria That Grow Aerobically, 11th Edition. Clinical and Laboratory Standards Institute (2018); CLSI. Reference method for broth dilution antifungal susceptibility testing of yeasts; approved standard-third edition; CLSI document M27-A3. Clinical and Laboratory Standards Institute (2008)). […]
The minimum inhibitory concentration (MIC) of peptoids against the ESKAPE bacteria (Enterococcus faecium ATCC 6569; Staphylococcus aureus ATCC 29213; Klebsiella pneumoniae ATCC 13883; Acinetobacter baumanii ATCC 19606; Pseudomonas aeruginosa ATCC 25619; Enterococcus faecalis ATCC 29212; and Escherichia coli ATCC 25922) was determined following CLSI guidelines (CLSI. Methods for Dilution Antimicrobial Susceptibility Tests for Bacteria That Grow Aerobically, 11th Edition. Clinical and Laboratory Standards Institute, 2018). The MIC against Mycobacterium smegmatis was also determined following CLSI guidelines (Woods, G. L. et al. Susceptibility Testing of Mycobacteria, Nocardiae, and Other Aerobic Actinomycetes, 2nd edition. (2011)). […]

[7] = tested on: single donor human red blood cells (hRBC)

**Q.** With `CCCCCCCCCCCCCNCC(=O)N(CCC)CC(=O)N(CC(=O)N(CCCCN)CC(=O)N(CC(=O)N(CC(=O)N(CCCN)CC(N)=O)Cc1ccccc1)Cc1ccco1)C(C)c1ccccc1` (stereo not shown) [RMG9-11] (H-[N(tridecyl)Gly][NPrGly][X1][Nlys][NFurfurylGly][Nphe][Gly(N(CH2)3NH2)]-NH2) as the compound, how does the “MIC E. faecalis” value [1] read?
**A.** Its value is 6.25 µg/mL (≈ 5.99 µM).

**Q.** What about the “MIC E. faecium” value [2] of the same compound?
**A.** Its value is 3.13 µg/mL (≈ 3 µM).

**Q.** And the “MIC E. coli” value [3]?
**A.** Its value is 6.25 µg/mL (≈ 5.99 µM).

**Q.** What about the “MIC P. aeruginosa” value [4] of the same compound?
**A.** Its value is 12.5 µg/mL (≈ 12 µM).

**Q.** What about the “MIC S. aureus” value [5] of the same compound?
**A.** Its value is 6.25 µg/mL (≈ 5.99 µM).

**Q.** And the “increase of biofilm MIC compared to MIC” value (C. albicans biofilm; BMIC vs planktonic C. albicans MIC)?
**A.** Its value is 16 fold.

**Q.** And the “MIC C. albicans biofilm (BMIC)” value (C. albicans biofilm; established biofilm, 24 h)?
**A.** The value was 100 µg/mL (≈ 95.8 µM).

**Q.** What about the “MIC M. smegmatis” value (Mycobacterium smegmatis) of the same compound?
**A.** The value was 6.25 µg/mL (≈ 5.99 µM).

**Q.** What about the “MIC K. pneumonia” value [6] of the same compound?
**A.** Its value is 50 µg/mL (≈ 47.9 µM).

**Q.** What about the “HC10 hRBC” value [7] of the same compound?
**A.** Its value is 29 µg/mL.
